Assay results reported in patent US20230381142A1, “ANTILEISHMANIAL COMPOUNDS, COMPOSITIONS AND USE THEREOF” (TRUSTEES OF BOSTON UNIVERSITY, priority 2022, published 2023).
In brackets after ≈: the same amount, converted by molar mass. Read-outs that look alike come from different tables or passages of the source.

Key:
[1] = test system: L. donovani intracellular amastigotes in B10R cells; assay: UCSD L. donovani infection assay (Assay Conditions D); assay type: cell-based; details: B10R cells; for L. donovani amastigotes EC75 (B10R cells): footnote d; for EC50: Leishmania donovani, values marked d, read-out: L. donovani amastigotes EC50 (B10R cells)
Protocol: (§1) Assay Conditions D: B10R cells (CVCL_0155) were seeded at 300 cells/well, and L. donovani WT promastigotes in stationary phase (7th day after passage) were added at 6,000 parasites/well (ratio of 20 parasites/cell). Both cells and parasites were seeded in DMEM High-Glucose medium (Gibco, cat. no. 11995065) containing 5% Fetal Bovine Serum (Sigma-Aldrich, cat. no. F2442) and 1% Penicillin-Streptomycin (Gibco, cat. no. 15140122). Cells and parasites were incubated in the presence of the compounds for 72 h at 37° C. and 5% C02. Plates were then fixed with 4% formaldehyde solution for at least 1 h, then washed with 1×PBS and stained with 5 μg/mL DAPI. Plates were read using an ImageXpress microscope (Molecular Devices) and analyzed by MetaXpress software (Molecular Devices) using a custom module optimized for this assay. […] Compounds were tested in a 10-point 2-fold serial dilution in 3 technical replicates, and 2 biological replicates. After 72 h, plates were fixed and stained with DAPI as described above. Images were acquired on an ImageXpress microscope, and analyzed using the MetaXpress custom module.
as §1, with “Compounds were obtained as 0.2 μmoles of dried film for primary single point screening. Each compound was diluted in DMSO to 10 μM final testing concentration. These compounds were tested in 2 biological replicates. The compounds were pre-spotted onto 384-well assay plates in single concentration.” for “Assay Conditions D:”, “CO2.” for “C02.”, “module. The DRCs were plotted, half-effective concentration (EC50) and half-cytotoxic concentration (CC50) were calculated using GraphPad Prism Software, version 6.05 (GraphPad Software, San Diego, CA).” for “module.”

host THP-1 macrophages = assay: GSK inMac assay, host cell toxicity readout (LD MAC); assay type: cell-based, human; details: for THP-1 Host Cell CC50: host THP-1 cells; for EC50: Homo sapiens, THP-1, cytotoxicity against host THP-1 macrophages
How it was run: (§2)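 MAC EC50 reflects THP-1 host cell counts, measured within GSK's inMac L. donovani infection assay that also scores intracellular amastigotes and infected-cell percentage.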

[2] = test system: L. donovani intracellular amastigotes infecting THP-1 macrophages; assay: GSK intramacrophage L. donovani assay (LD AMMAC, inMac; Assay Conditions C); assay type: cell-based; details: Leishmania donovani
How it was run: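 EC50 values come from counting amastigotes per infected THP-1 macrophage (AMMAC). Parallel read-outs give percentage of infected cells per well (INFCELL) and a macrophage-number toxicity EC50 (MAC).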

[3] = GSK inMac assay, host cell toxicity readout (LD MAC); assay type: cell-based, human; details: human
How it was run: as §2

human serum albumin = human serum albumin (Homo sapiens, UniProt P02768); assay: Human serum albumin (HSA) binding, chromatographic; assay type: in vitro ADME
Protocol: The percentage of compound bound to human serum albumin was measured using a chromatographic method as described. Briefly, each compound was assayed on an immobilized HSA column and gradient retention times measured, with chromatographic peak detection by UV. Each retention time was then converted to a % HSA bound value using a calibration set of compounds with a known % HSA binding.

[4] = Kinetic aqueous solubility by CLND; assay type: physicochemical; details: kinetic from dmso stock, high-throughput CLND
Protocol: Solubility of compounds using ChemiLuminescent Nitrogen Detection (CLND) was measured as described. Solubility of compounds using Charged Aerosol Detection (CAD) was measured as described. Solubility of solid compounds in Fasted Simulated Intestinal Fluid (FaSSIF) was measured as described.

[5] = Property forecast index (PFI = ChromLogD7.4 + aromatic rings); assay type: physicochemical
Protocol: At the outset of the project, compound 1 was evaluated against GSK's established criteria for antileishmanial compound advancement (Table 2). Some of these assessments were performed on racemic 1, while chiral separation was also pursued of the 1 racemate to determine the active enantiomer. […] Based on this promising profile, it progressed into medicinal chemistry optimization to better understand structure-activity relationships (SAR) toward improved potency, as well as structure-property relationships (SPR) with an eye toward reducing PFI and plasma protein binding.

[6] = Artificial membrane permeability (AMP); assay type: in vitro ADME; details: PAMPA, pH 7.4
Protocol: Passive permeability of compounds via rate of permeation through an artificial phospholipid membrane at pH 7.4 was measured in a high-throughput format, in duplicate. A solution of 1.8% phosphatidylcholine in 1% decane was added to a 96-well Millicell filter plate along with 250 μL of 50 mM phosphate buffer, pH 7.4 on the donor side, and 100 μL of the same buffer solution on the receiver side. The assay plate was shaken for 45 minutes before adding test compounds. Test compounds were then added to the filter plate and then incubated at room temperature with shaking for three hours. The donor and receiver solutions were next transferred to a 384-well plate for analysis by LC/MS.

HepG2 cells = assay: HepG2 cytotoxicity; assay type: cell-based; details: Homo sapiens; toxicity against HepG2 cells
Protocol: Given the literature precedents described above and the apparent narrow tolerance for R^3 substitutions observed in the primary screen compounds, a thorough and methodical assessment was undertaken of tolerated groups at the three points of diversity (R^1/R^2/R^3) for the core. At this stage of the project, all analogues were assessed using a battery of assays performed in-house at GlaxoSmithKline. For antileishmanial activity, GSK's inMac assay was utilized. This assay provides two readouts of compound potency: average number of intracellular amastigotes per infected cell (AMMAC) EC50, percentage of infected cells per well (INFCELL) EC50, as well as a toxicity output derived from the number of host cells (MAC EC50). In addition, compounds were assessed for toxicity against HepG2 cells (HEPG2 EC50). Here, AMMAC EC50 values were focused on for relative potency assessments. […] It should be noted that for all compounds assessed in this project, the measured toxicity against THP-1 macrophages either equaled or exceeded that of HepG2 hepatocytes, therefore the MAC SI is used here as the more conservative estimate of therapeutic index.

[7] = THP-1 cells, values marked c, read-out: L. donovani amastigotes EC50 (THP-1 cells)
[8] = footnote c, read-out: THP-1 Host Cell CC50
[9] = values marked c: THP-1 cells, read-out: L. donovani amastigotes EC50 (μM, THP-1 or B10R cells)
[10] = growth inhibition of L. donovani intracellular amastigotes infecting THP-1 macrophages, read-out: LD AMMAC EC50

Chain of human serum albumin (P02768 25-609): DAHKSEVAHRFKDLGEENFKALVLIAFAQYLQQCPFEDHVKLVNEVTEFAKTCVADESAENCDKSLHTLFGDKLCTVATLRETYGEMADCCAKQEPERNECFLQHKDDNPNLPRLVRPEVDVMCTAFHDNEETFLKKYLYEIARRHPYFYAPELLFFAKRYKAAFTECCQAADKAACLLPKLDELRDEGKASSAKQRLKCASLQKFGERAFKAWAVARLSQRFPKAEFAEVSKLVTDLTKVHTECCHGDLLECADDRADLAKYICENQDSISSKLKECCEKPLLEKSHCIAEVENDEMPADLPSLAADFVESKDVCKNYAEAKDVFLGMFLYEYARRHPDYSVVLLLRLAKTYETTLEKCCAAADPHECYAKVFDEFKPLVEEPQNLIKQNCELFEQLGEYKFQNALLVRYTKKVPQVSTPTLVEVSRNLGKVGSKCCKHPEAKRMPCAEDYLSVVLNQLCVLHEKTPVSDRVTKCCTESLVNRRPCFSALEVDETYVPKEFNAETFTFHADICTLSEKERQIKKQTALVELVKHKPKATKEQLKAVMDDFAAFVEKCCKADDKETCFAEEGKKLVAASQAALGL

Row | Structure (SMILES) | L. donovani amastigotes EC75 (μM, B10R cells) [1] | L. donovani amastigotes EC75 (B10R cells) [1] | CC50 [3, 8] | HSA Binding (human serum albumin) | PFI [5] | EC50 [2, 10] | Papp at 3 h [6] | EC50 (host THP-1 macrophages) | EC50 (HepG2 cells) | also measured
1 | CCn1cc(N2C(=O)c3[nH]nc(CC(C)C)c3C2c2ccccc2C(F)(F)F)cn1 (stereo not shown) [BUCMD00671] | >5 µM | – | – | – | – | – | – | – | – | THP-1 Host Cell CC50 (host THP-1 macrophages): >10 µM
2 | CC(C)Cc1n[nH]c2c1C(c1ccc(F)c(F)c1)N(c1cncc(F)c1)C2=O (stereo not shown) [BUCMD00701] | >5 µM | – | – | – | – | – | – | – | – | THP-1 Host Cell CC50 (host THP-1 macrophages): >10 µM
3 | CC(C)Cc1n[nH]c2c1C(c1ccc(F)cc1)N(c1ccc3ncnn3c1)C2=O (stereo not shown) [CMLD010888] | – | 2.3 µM | > 50 µM | – | – | – | – | – | – | EC50 [2, 7]: 5 µM
4 | CC(C)Cc1n[nH]c2c1C(c1ccccc1Cl)N(c1ccc3ncnn3c1)C2=O (stereo not shown) [CMLD010921] | – | 0.6 µM | > 20 µM | – | – | – | – | – | – | EC50 [1]: 0.6 µM
5 | C#CCn1nc2c(c1CC(C)C)C(c1ccc(F)cc1)N(c1ccc(OC)cc1)C2=O (stereo not shown) [CMLD010986] | >10 µM | – | – | – | – | – | – | – | – | EC50 [2, 9]: 3.2 µM; CC50 ([3]; host THP-1 cells): 25.1 µM
6 | C#CCn1nc(CC(C)C)c2c1C(=O)N(c1ccc(OC)cc1)C2c1ccc(F)cc1 (stereo not shown) [CMLD010987] | – | 4.0 µM | 20 µM | – | – | – | – | – | – | EC50 [2, 7]: 1.6 µM
7 | CC(C)Cc1n[nH]c2c1C(c1ccc(F)cc1)N(CCN1CCCC1)C2=O (stereo not shown) [CMLD011072] | – | >10 µM | > 50 µM | – | – | – | – | – | – | EC50 [2, 7]: 15.9 µM
8 | CC(C)Cc1n[nH]c2c1C(c1ccsc1)N(c1ccc3c(c1)OCO3)C2=O (stereo not shown) [CMLD011136] | 3.6 µM | – | – | – | – | – | – | – | – | EC50 [2, 9]: 5 µM; CC50 ([3]; host THP-1 cells): ≥ 50.1 µM
9 | COc1ccccc1C1c2c(CC(C)C)n[nH]c2C(=O)N1c1ccc2c(c1)OCO2 (stereo not shown) [CMLD011546] | – | 0.3 µM | > 20 µM | – | – | – | – | – | – | EC50 [1]: 0.3 µM
10 | COc1ncc(N2C(=O)c3[nH]nc(CC(C)C)c3C2c2ccc(F)cc2)cc1C (stereo not shown) [CMLD011555] | 1.7 µM | – | – | – | – | – | – | – | – | EC50 [2, 9]: 10 µM; CC50 ([3]; host THP-1 cells): 20 µM
11 | CC(C)Cc1n[nH]c2c1C(c1ccc(F)cc1)N(c1ccc(N3CCCC3=O)cc1)C2=O (stereo not shown) [CMLD011560] | 1.0 µM | – | – | – | – | – | – | – | – | EC50 [2, 9]: 4 µM; CC50 ([3]; host THP-1 cells): 20 µM
12 | COc1ccc(N2C(=O)c3[nH]nc(CC(C)C)c3C2c2ccccc2Br)cn1 (stereo not shown) [CMLD012218] | – | 0.4 µM | > 20 µM | – | – | – | – | – | – | EC50 [1]: 1 µM
13 | COc1ccc(N2C(=O)c3[nH]nc(CCC(C)C)c3C2c2ccc(F)cc2)cc1 (stereo not shown) [Compound 9] | – | – | – | 98.0% | 9.1 | 2.5 µM | 10 ×10⁻⁶ cm/s | 31.6 µM | 79.4 µM | solubility [4]: 15 µM (≈ 5.9 µg/mL)
14 | COc1ccc(N2C(=O)c3[nH]nc(CC(C)(C)C)c3C2c2ccc(F)cc2)cc1 (stereo not shown) [Compound 10] | – | – | – | 97.4% | 9.0 | 2.5 µM | 17 ×10⁻⁶ cm/s | 25.1 µM | 39.8 µM | solubility [4]: 36 µM (≈ 14.2 µg/mL)
15 | CCCCc1n[nH]c2c1C(c1ccc(F)cc1)N(c1ccc(OC)cc1)C2=O (stereo not shown) [Compound 11] | – | – | – | – | 8.4 | 0.1 µM | – | 2.5 µM | – | EC50 ([2]; THP-1, read-out: potency (antileishmanial, text to Table 3)): ~0.3 µM
16 | C=CCCc1n[nH]c2c1C(c1ccc(F)cc1)N(c1ccc(OC)cc1)C2=O (stereo not shown) [Compound 12] | – | – | – | 97.5% | 8.1 | 1.6 µM | 41 ×10⁻⁶ cm/s | 3.2 µM | 50.1 µM | solubility [4]: 135 µM (≈ 51 µg/mL)
17 | C=C(C)CCc1n[nH]c2c1C(c1ccc(F)cc1)N(c1ccc(OC)cc1)C2=O (stereo not shown) [Compound 13] | – | – | – | 96.8% | 8.5 | 0.5 µM | 37 ×10⁻⁶ cm/s | 1.6 µM | 50.1 µM | solubility [4]: 52 µM (≈ 20.4 µg/mL)
18 | C=C(C)CCCc1n[nH]c2c1C(c1ccc(F)cc1)N(c1ccc(OC)cc1)C2=O (stereo not shown) [Compound 14] | – | – | – | 97.9% | 8.9 | 6.3 µM | 27 ×10⁻⁶ cm/s | 20 µM | 50.1 µM | solubility [4]: 17 µM (≈ 6.89 µg/mL)
19 | CC(C)Cc1n[nH]c2c1C(c1ccc(F)cc1)N(c1ccc(-n3ccnc3)cc1)C2=O (stereo not shown) [Compound 28] | – | – | – | 96.3% | 8.1 | 2.5 µM | < 0.3 ×10⁻⁶ cm/s | > 50 µM | > 100 µM | –
